Measured values as given in publication PMC11860126, “X-Ray Irradiation Induces Oxidative Stress and Upregulates Intestinal Nrf2-Mrp2 Pathway, Leading to Decreased Intestinal Absorption of Valsartan” (Pharmaceutics, 2025).

Test system: Caco-2 cells
Test: Caco-2 cell uptake assay of valsartan with Mrp2/P-gp inhibitors and irradiation
Details: valsartan 10 μM, 5 Gy X-ray 24 h before

For `CCCCC(=O)N(Cc1ccc(-c2ccccc2-c2nnn[nH]2)cc1)[C@H](C(=O)O)C(C)C` [valsartan, Valsartan], the “valsartan uptake in Caco-2 cells, IR group compared with control group” value (1 h, p < 0.05) was “significant reduction” and the “valsartan uptake in Caco-2 cells, IR group compared with control group” value (2 h) was “no significant difference”.
